Measurements taken from patent US10874743B2, “IRAK degraders and uses thereof” (Kymera Therapeutics, Inc., priority 2017, dated 2020).

Legend:
IRAK4 [1] = molecular target: T1, IRAK4 (Homo sapiens, UniProt Q9NWZ3); assay: OCI-LY-10 MSD assay for IRAK4 DC50; type: cell-based; design: endogenous in cells; host or cells: OCI-LY10; settings: OCI-LY10 cells, 4 hr incubation, concentration required to degrade 50% of protein
T1 sequence (Q9NWZ3 1-460): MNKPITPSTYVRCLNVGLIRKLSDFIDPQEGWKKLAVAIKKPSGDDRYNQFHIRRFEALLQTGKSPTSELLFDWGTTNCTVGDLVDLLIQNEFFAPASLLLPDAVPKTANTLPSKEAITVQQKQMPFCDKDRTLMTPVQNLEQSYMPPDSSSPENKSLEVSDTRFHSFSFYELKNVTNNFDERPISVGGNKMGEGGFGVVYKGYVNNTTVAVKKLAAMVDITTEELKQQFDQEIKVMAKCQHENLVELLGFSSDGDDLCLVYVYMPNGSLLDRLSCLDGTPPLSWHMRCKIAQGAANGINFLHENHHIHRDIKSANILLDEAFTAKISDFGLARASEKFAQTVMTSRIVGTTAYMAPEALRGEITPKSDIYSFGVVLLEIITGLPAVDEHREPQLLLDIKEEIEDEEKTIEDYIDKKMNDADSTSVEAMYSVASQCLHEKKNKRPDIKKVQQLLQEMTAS
Protocol: A MSD assay was run to determine the concentration of compound required to degrade 50% of protein (DC50).
Day 1 • Compounds were reconstituted to 10 mM in stock solutions. The stock solutions were diluted to 5 mM and 45 μL of each dilution was transferred to a 384 pp-plate. A 3 fold, 8-point serial dilution was performed by transferring 15 μL of compound into 30 μL DMSO using Janus. • 20 nL of each compounds were added into each well of a 96-well plate (Corning3799). • OCI-Ly10 cells were seeded into the 96-well plate at 3.0*10e^5 cells/100 μL/well. • The cell plate was shaken at 720 rpm for 5 min and incubated for 4 hr. • The 100 μL of cells were transferred into the 96-PCR plate and spun down at high speed for 5 mins. • The supernatant was discarded and 100 μL of RIPA lysis buffer with proteinase inhibitors was added per well. The plate was then sealed and shaken at 600 rpm and 4° C. for about 20 min. • The plate was then spun down at high speed (about 3200 g) for 30 min and then frozen in a −80° C. fridge. • A bare MSD plate (L15XA-3) was coated with 2 μg/mL of capture antibody (mouse Anti-IRAK4 antibody [2H9], ab119942) in PBS to 40 μL/well and incubated overnight at 4° C.
Day 2 • The MSD coated plate was washed 3× (150 μL/well) with 1×TBST (CST #9997S). • The MSD plate was then blocked with 150 μL of blocking buffer [3% Blocker A (MSD, R93BA-4) in TBST]/well and shaken for 1 hr at R^† and 600 rpm. • The MSD plate was washed 3× (150 μL/well) with 1×TBST. The sample RIPA lysates were then added to the MSD plate (50 μL/well) and shaken for 1 hr at R^† and 600 rpm. • The MSD plate was washed 3× (150 μL/well) with 1×TBST and the primary detection antibody (Rabbit Anti-IRAK4 antibody [Y279], ab32511) was added to a final concentration of 1 μg/ml with 25 μL/well. The plate was then shaken for 1 hr at RT and 600 rpm. • The MSD plate was washed 3× (150 μL/well) with 1×TBST and the secondary detection antibody, SULFO-TAG anti-species antibody (Anti Rabbit Antibody (R32AB-5) MSD, R32AB-1) was added to a volume of 25 μL/well at a final concentration of 1 jag/ml. The plate was then shaken for 1 hr at RT and 600 rpm. • The MSD plate was then washed 3× (150 μL/well) with 1×TBST. • lx MSD reading buffer was then added (150 μL/well) and the plate was diluted with 4× water. (MSD, R92TC-2) • The MSD instrument was then read.
Data Analysis • The remaining activity was calculated following the formula below:
Calculate • The DC50 was calculated by fitting the Curve using Xlfit (v5.3.1.3), equation 201: Y=Bottom+(Top−Bottom)/(1+10^((Log IC50−X)*HillSlope))
OCI-LY-10 DC50 results. The letter codes for IRAK4 DC50 indicate the concentration of compound required to degrade 50% of protein: A (<0.05 μM), B (0.05-0.1 μM), C (0.1-0.5 μM), D (0.5-1.0 μM), and E (>1.0 μM).

IRAK4 [2] = molecular target: T1, IRAK4; assay: OCI-LY-10 degradation assay (western blot, % IRAK4 degraded after 4 hours); type: cell-based; design: endogenous in cells; host or cells: OCI-LY10; settings: OCI-LY10 cells, 4 hours; for OCI-LY10 % IRAK4 Degradation (0.01 uM): 0.01 uM compound; for OCI-LY10 % IRAK4 Degradation (0.1 uM): 0.1 uM compound; for OCI-LY10 % IRAK4 Degradation (1 uM): 1 uM compound
Summary of the method: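 IRAK4 loss after 4 h at 37° C was scored A (>50%), B (>20-50%) or C (<20%) from infrared western blots of RIPA lysates, 20-25 μg protein per lane. Compound was applied at 0.003-10 μM final to OCI-LY10 cells cultured in RPMI-1640 with 20% FBS and 55 μM 2-ME.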

Row | DC50 (IRAK4 [1]) [nM] | OCI-LY10 % IRAK4 Degradation (0.01 uM) (IRAK4 [2]) | OCI-LY10 % IRAK4 Degradation (0.1 uM) (IRAK4 [2]) | OCI-LY10 % IRAK4 Degradation (1 uM) (IRAK4 [2]) | SMILES
1 | < 50 |  |  |  | NC(=O)c1nn(-c2ccc(C(=O)NCCOCCCOCCNc3cccc4c3C(=O)N(C3CCC(=O)NC3=O)C4=O)cc2)cc1NC(=O)c1coc(-c2ccnc(NCC3CC3)c2)n1 (stereo not shown) [I-213]
2 | < 50 |  |  |  | O=C1CCC(n2c(=O)n(CCOCCOCCNC(=O)c3ccc(-n4cc(NC(=O)c5coc(-c6ccnc(NCC7CC7)c6)n5)c(C(F)F)n4)cc3)c3ccccc32)C(=O)N1 (stereo not shown) [I-251]
3 | < 50 |  |  |  | Cn1c(=O)n(C2CCC(=O)NC2=O)c2cccc(CCCOCCOCCNC(=O)c3ccc(-n4cc(NC(=O)c5coc(-c6ccnc(NCC7CC7)c6)n5)c(C(F)F)n4)cc3)c21 (stereo not shown) [I-253]
4 | 100 to 500 |  |  |  | O=C1CCC(N2C(=O)c3cccc(NCCOCCOCCNC(=O)c4ccc(-n5cc(NC(=O)c6coc(-c7ccnc(NCC(F)(F)F)c7)n6)c(C(F)F)n5)cc4)c3C2=O)C(=O)N1 (stereo not shown) [I-261]
5 | < 50 |  |  |  | O=C1CCC(N2C(=O)c3cccc(NC4CCN(CCOCCNC(=O)c5ccc(-n6cc(NC(=O)c7coc(-c8ccnc(NCC9CC9)c8)n7)c(C(F)F)n6)cc5)CC4)c3C2=O)C(=O)N1 (stereo not shown) [I-268]
6 |  | C (<20% degradation) | C (<20% degradation) | A (>50% degradation) | O=C1CCC(N2C(=O)c3cccc(OCc4cnnn4CCOCCOCCNCn4cc(NC(=O)c5coc(-c6ccnc(NCC7CC7)c6)n5)c(C(F)F)n4)c3C2=O)C(=O)N1 (stereo not shown) [I-383]
7 |  | C (<20% degradation) | B (>20-50% degradation) | B (>20-50% degradation) | O=C1CCC(N2C(=O)c3cccc(NC4CCN(CCOCCNCc5ccc(-n6cc(NC(=O)c7coc(-c8ccnc(NCC9CC9)c8)n7)c(C(F)F)n6)cc5)CC4)c3C2=O)C(=O)N1 (stereo not shown) [I-385]
8 |  | C (<20% degradation) | C (<20% degradation) | C (<20% degradation) | O=C1CCC(N2C(=O)c3cccc(NCCOCCOCCN4Cc5ccc(-n6cc(NC(=O)c7coc(-c8ccnc(NCC9CC9)c8)n7)c(C(F)(F)F)n6)cc5C4)c3C2=O)C(=O)N1 (stereo not shown) [I-426, 2-[2-(Cyclopropylmethylamino)-4-pyridyl]-N-[1-[2-[2-[2-[2-[[2-(2,6-dioxo-3-piperidyl)-1,3-dioxo-isoindolin-4-yl]amino]ethoxy]ethoxy]ethyl]isoindolin-5-yl]-3-(trifluoromethyl)pyrazol-4-yl]oxazole-4-carboxamide]
9 |  | C (<20% degradation) | C (<20% degradation) | C (<20% degradation) | NC(=O)c1nn(CC#CC#CCOCCOCCNc2cccc3c2C(=O)N(C2CCC(=O)NC2=O)C3=O)cc1NC(=O)c1coc(-c2ccnc(NCC3CC3)c2)n1 (stereo not shown) [I-434, N-[3-carbamoyl-1-[6-[2-[2-[[2-(2,6-dioxo-3-piperidyl)-1,3-dioxo-isoindolin-4-yl]amino]ethoxy]ethoxy]hexa-2,4-diynyl]pyrazol-4-yl]-2-[2-(cyclopropylmethylamino)-4-pyridyl]oxazole-4-carboxamide]
10 |  | C (<20% degradation) | C (<20% degradation) | C (<20% degradation) | NC(=O)c1nn(CCCCCCOCCOCCNc2cccc3c2C(=O)N(C2CCC(=O)NC2=O)C3=O)cc1NC(=O)c1coc(-c2ccnc(NCC3CC3)c2)n1 (stereo not shown) [I-435, N-[3-carbamoyl-1-[6-[2-[2-[[2-(2,6-dioxo-3-piperidyl)-1,3-dioxo-isoindolin-4-yl]amino]ethoxy]ethoxy]hexyl]pyrazol-4-yl]-2-[2-(cyclopropylmethylamino)-4-pyridyl]oxazole-4-carboxamide]

The remaining lines, values behind:

Row | SMILES | DC50 (IRAK4 [1]) [nM] | OCI-LY10 % IRAK4 Degradation (0.01 uM) (IRAK4 [2]) | OCI-LY10 % IRAK4 Degradation (0.1 uM) (IRAK4 [2]) | OCI-LY10 % IRAK4 Degradation (1 uM) (IRAK4 [2])
11 | Cn1cc(NC(=O)c2coc(-c3ccnc(NCC(F)(F)F)c3)n2)c(C(=O)NCCOCCOCCOCCOCCOCCNc2cccc3c2C(=O)N(C2CCC(=O)NC2=O)C3=O)n1 (stereo not shown) [I-214] | > 1000 |  |  | 
12 | O=C1CCC(N2C(=O)c3cccc(NCCCCNCCCNC(=O)c4ccc(-n5cc(NC(=O)c6coc(-c7ccnc(NCC8CC8)c7)n6)c(C(F)(F)F)n5)cc4)c3C2=O)C(=O)N1 (stereo not shown) [I-218] | > 1000 |  |  | 
13 | CN(CCOCCCc1ccc2c(c1)C(=O)N(C1CCC(=O)NC1=O)C2=O)Cc1ccc(-n2cc(NC(=O)c3coc(-c4ccnc(NCC5CC5)c4)n3)c(C(F)F)n2)cc1 (stereo not shown) [I-376] |  | B (>20-50% degradation) | A (>50% degradation) | A (>50% degradation)
14 | CN(CCOCCCc1ccc2c(c1)C(=O)N(C1CCC(=O)NC1=O)C2=O)Cc1ccc(-n2cc(NC(=O)c3coc(-c4ccncc4)n3)c(C(F)F)n2)cc1 (stereo not shown) [I-377] |  | C (<20% degradation) | C (<20% degradation) | B (>20-50% degradation)
15 | CN(CCNCCCc1ccc2c(c1)C(=O)N(C1CCC(=O)NC1=O)C2=O)C(=O)c1ccc(-n2cc(NC(=O)c3coc(-c4ccncc4)n3)c(C(F)F)n2)cc1 (stereo not shown) [I-378] |  | C (<20% degradation) | C (<20% degradation) | A (>50% degradation)
16 | O=C1CCC(N2C(=O)c3ccc(CCCNCc4ccc(-n5cc(NC(=O)c6coc(-c7ccncc7)n6)c(C(F)F)n5)cc4)cc3C2=O)C(=O)N1 (stereo not shown) [I-380] |  | C (<20% degradation) | C (<20% degradation) | C (<20% degradation)
17 | O=C1CCC(N2C(=O)c3ccc(CCCOCCNCc4ccc(-n5cc(NC(=O)c6coc(-c7ccncc7)n6)c(C(F)F)n5)cc4)cc3C2=O)C(=O)N1 (stereo not shown) [I-382] |  | C (<20% degradation) | C (<20% degradation) | B (>20-50% degradation)
18 | NC(=O)c1nn(-c2ccc(C(=O)NCCOCCOCCNc3cccc4c3C(=O)N(C3CCC(=O)NC3=O)C4=O)cc2)cc1NC(=O)c1coc(-c2ccnc(C3CC3)c2)n1 (stereo not shown) [I-424] |  | B (>20-50% degradation) | B (>20-50% degradation) | B (>20-50% degradation)
19 | CC[C@@H]1[C@H](F)C(=O)N[C@@H]1COc1ncc(C#Cc2ccc(OCCOCCOCCOCCNc3cccc4c3C(=O)N(C3CCC(=O)NC3=O)C4=O)cc2)c2cc(C(N)=O)c(OC)cc12 (stereo partly drawn) [I-425, 4-[2-[4-[2-[2-[2-[2-[[2-(2,6-Dioxo-3-piperidyl)-1,3-dioxo-isoindolin-4-yl]amino]ethoxy]ethoxy]ethoxy]ethoxy]phenyl]ethynyl]-1-[[(2S,3S,4S)-3-ethyl-4-fluoro-5-oxo-pyrrolidin-2-yl]methoxy]-7-methoxy-isoquinoline-6-carboxamide] |  | B (>20-50% degradation) | A (>50% degradation) | A (>50% degradation)
